Converted amounts (≈) assume the structure as drawn. Read-outs that look alike come from different tables or passages of the source.
Experiments:
Botrytis cinerea = test: Fungicidal activity, fungi growth rate method, BC; type: cell-based; details: Botrytis cinerea, 50 μg/mL
[1] = tested on: tobacco mosaic virus (TMV); test: Anti-TMV curative activity (treatment mode), live friction inoculation on tobacco seedlings; type: in vivo; details: Tobacco mosaic virus, read-out: Anti-TMV activity, Curative effect (inhibition), 100 μg/mL, tobacco seedlings, checked on seventh day
[2] = tested on: Phytophthora infestans (Mont) de Bary; test: microbe, parasite or virus in culture; type: cell-based; details: Phytophthora infestans
Physalospora piricola = test: Fungicidal activity, fungi growth rate method, PP; type: cell-based; details: 50 μg/mL
Rhizoctonia cerealis = test: Fungicidal activity, fungi growth rate method, RC; type: cell-based; details: Ceratobasidium cereale, 50 μg/mL
Sclerotinia sclerotiorum = test: microbe, parasite or virus in culture; type: cell-based; details: Sclerotinia sclerotiorum; for inhibition at 50 µg/mL: 50 μg/mL
wheat Gibberella zeae = test: microbe, parasite or virus in culture; type: cell-based; details: Fusarium graminearum
[3] = tested on: tobacco mosaic virus (TMV); test: Anti-TMV inactivation activity (inactivation mode), compound mixed with TMV before inoculation of tobacco leaves; type: in vivo; details: Tobacco mosaic virus, read-out: Anti-TMV activity, Inactivation effect (inhibition)
Pellicularia sasakii = test: Fungicidal activity, fungi growth rate method, PS; type: cell-based; details: 50 μg/mL
[4] = tested on: tobacco mosaic virus (TMV); test: Anti-TMV inducing activity (induction mode), tobacco seedlings; type: in vivo; details: Tobacco mosaic virus, read-out: Anti-TMV activity, Induction effect (inhibition), 100 μg/mL, tobacco seedlings
Alternaria solani = test: Fungicidal activity, fungi growth rate method, AS; type: cell-based; details: Alternaria solani, 50 μg/mL
Cercospora arachidicola = test: Fungicidal activity, fungi growth rate method, CA; type: cell-based; details: Mycosphaerella arachidis, 50 μg/mL
[5] = tested on: tobacco mosaic virus (TMV); test: Anti-TMV protective activity (protection mode), live friction inoculation on tobacco seedlings; type: in vivo; details: Tobacco mosaic virus, read-out: Anti-TMV activity, Protection effect (inhibition)
[6] = read-out: Fungicidal activity, inhibition, BC
[7] = read-out: Fungicidal activity (inhibition) against PI: Phytophthora infestans (Mont) de Bary
[8] = read-out: Fungicidal activity, inhibition, PI
[9] = read-out: Fungicidal activity, inhibition, PP
[10] = read-out: Fungicidal activity, inhibition, RC
[11] = read-out: Fungicidal activity, inhibition, SS
[12] = read-out: Fungicidal activity, inhibition, GZ
[13] = read-out: Fungicidal activity, inhibition, PS
[14] = read-out: Fungicidal activity, inhibition, AS
[15] = read-out: Fungicidal activity (inhibition) against CA: Cercospora arachidicola
[16] = read-out: Fungicidal activity, inhibition, CA
[17] = read-out: Fungicidal activity (inhibition) against RC: Rhizoctonia cerealis
[18] = read-out: Fungicidal activity (inhibition) against SS: Sclerotinia sclerotiorum
[19] = read-out: Fungicidal activity (inhibition) against PS: Pellicularia sasakii
[20] = read-out: Fungicidal activity (inhibition) against AS: Alternaria solani

| Compound | inhibition at 50 µg/mL (Botrytis cinerea; [6]) | inhibition at 100 µg/mL [1] | inhibition at 50 µg/mL [2, 7] | inhibition at 50 µg/mL [2, 8] | inhibition at 50 µg/mL (Physalospora piricola; [9]) | inhibition at 50 µg/mL (Rhizoctonia cerealis; [10]) | inhibition at 50 µg/mL (Sclerotinia sclerotiorum; [11]) | inhibition at 50 µg/mL (wheat Gibberella zeae; [12]) | inhibition at 100 µg/mL [3] | inhibition at 50 µg/mL (Pellicularia sasakii; [13]) | melting point | inhibition at 100 µg/mL [4] | inhibition at 50 µg/mL (Alternaria solani; [14]) | inhibition at 50 µg/mL (Cercospora arachidicola; [16]) | inhibition at 100 µg/mL [5] | inhibition at 50 µg/mL (Sclerotinia sclerotiorum; [18]) | other results |
| --- | --- | --- | --- | --- | --- | --- | --- | --- | --- | --- | --- | --- | --- | --- | --- | --- | --- |
| COc1ccc(/C=C(\NC(=O)c2ccccc2)C(=O)N2CCC(O)(c3ccc(Br)cc3)CC2)cc1 [Compound 16, (Z)-N-[1-[[4-(4-bromophenyl)-4-hydroxy-1-piperidinyl]carbonyl]-2-(4-methoxyphenyl)ethenyl]benzamide] | 29% | 0% | 33% | 33% | 5% | 13% | 67% | 2% | 1% | 15% | 208 to 210 °C | 8% | 23% | 55% | 57% |  | inhibition at 50 µg/mL (Cercospora arachidicola; [15]): 55% |
| O=C(N/C(=C\c1ccc([N+](=O)[O-])cc1)C(=O)N1CCC(O)(c2ccc(Br)cc2)CC1)c1ccccc1 [Compound 23, (Z)-N-[1-[[4-(4-bromophenyl)-4-hydroxy-1-piperidinyl]carbonyl]-2-(4-nitrophenyl)ethenyl]benzamide] | 7% | 0% |  | 17% | 10% | 26% | 67% | 19% | 4% | 33% | 186 to 188 °C | 11% | 25% | 10% | 59% |  |  |
| O=C(NCc1cccc(Br)c1)/C(=C/c1ccccc1)NC(=O)c1ccccc1 [Compound 51, N-[(1Z)-2-phenyl-1-[[(3-bromophenylmethyl)amino]carbonyl]ethenyl]benzamide] | 24% | 12% |  | 21% | 18% | 28% | 50% | 43% | 69% | 14% | 180 to 182 °C | 14% | 25% | 15% | 11% |  |  |
| O=C(N/C(=C\c1ccccc1)C(=O)N1CCC(O)CC1)c1ccccc1 [Compound 45, (Z)-N-[1-[(4-hydroxy-1-piperidinyl)carbonyl]-2-phenylethenyl]benzamide] | 12% | 30% | < 25% | 24% | 6% | 13% | 38% | 43% | 22% | 3% | 115 to 117 °C | 52% | 25% | 6% | 54% | 38% | inhibition at 50 µg/mL (Physalospora piricola; read-out: Fungicidal activity (inhibition) against PP: Physalospora piricola): < 20%; inhibition at 50 µg/mL (Rhizoctonia cerealis; [17]): < 20%; inhibition at 50 µg/mL (wheat Gibberella zeae; read-out: Fungicidal activity (inhibition) against GZ: wheat Gibberella zeae): < 45%; inhibition at 50 µg/mL (Pellicularia sasakii; [19]): < 30%; inhibition at 50 µg/mL (Alternaria solani; [20]): < 30%; inhibition at 50 µg/mL (Cercospora arachidicola; [15]): < 25% |
| O=C(N/C(=C\c1ccc(Cl)cc1)C(=O)N1CCC(O)(c2ccc(Br)cc2)CC1)c1ccccc1 [Compound 18, (Z)-N-[1-[[4-(4-bromophenyl)-4-hydroxy-1-piperidinyl]carbonyl]-2-(4-chlorophenyl)ethenyl]benzamide] | 34% | 0% |  | 31% | 27% | 29% | 93% | 49% | 27% | 29% | 210 to 212 °C | 34% | 43% | 30% | 39% |  | EC90 (Sclerotinia sclerotiorum; read-out: EC90 against S. sclerotiorum in vitro): 381 µg/mL (≈ 706 µM); inhibition at 50 µg/mL (Alternaria solani; [20]): 43% |
| O=C(N/C(=C\c1ccccc1)C(=O)N1CCC(O)(c2ccc(Br)cc2)CC1)c1ccc([N+](=O)[O-])cc1 [Compound 10, (Z)-N-[1-[[4-(4-bromophenyl)-4-hydroxy-1-piperidinyl]carbonyl]-2-phenylethenyl]-4-nitrobenzamide] | 11% | 39% |  | 18% | 7% | 16% | 86% | 17% | 62% | 17% | 130 to 132 °C | 48% | 8% | 9% | 13% | 80 to 95% |  |
| Cc1nnsc1/C=C1\N=C(c2ccccc2)OC1=O [Compound 77, (4Z)-4-[5-(4-methyl-1,2,3-thiadiazol)ethenyl]-2-phenyl-1,3-oxazol-5-(4H)-one] | 12% | 0% |  | 16% | 6% | 23% | 47% | 43% | 0% | 14% | 196 to 198 °C | 44% | 11% | 24% | 40% | 47% |  |
| Cc1snnc1/C=C(\NC(=O)c1ccccc1)C(=O)N1CCC(O)(c2ccc(Br)cc2)CC1 [Compound 28, (Z)-N-[1-[[4-(4-bromophenyl)-4-hydroxy-1-piperidinyl]carbonyl]-2-[4-(5-methyl-1,2,3-thiadiazol)]ethenyl]benzamide] | 24% | 43% | ~20% | 19% | 29% | 62% | 75% | 77% | 3% | 27% | 231 to 233 °C | 4% | 32% | 27% | 36% | 60 to 80% | inhibition at 50 µg/mL (Botrytis cinerea; read-out: Fungicidal activity (inhibition) against BC: Botrytis cinerea): ~20%; inhibition at 50 µg/mL (Rhizoctonia cerealis; [17]): 62%; inhibition at 50 µg/mL (Pellicularia sasakii; [19]): ~20% |
| O=C(NCc1ccc(Br)cc1)/C(=C/c1ccccc1)NC(=O)C1CCCCC1 [Compound 60, N-[(1Z)-2-phenyl-1-[[(4-bromophenylmethyl)amino]carbonyl]ethenyl]cyclohexanecarboxamide] | 18% | 16% |  | 16% | 12% | 23% | 38% | 57% | 53% | 9% | 215 to 216 °C | 18% | 21% | 18% | 28% |  |  |
| O=C(O)/C(=C/c1ccccc1)NC(=O)C1CC1 [Compound 67, (Z)-2-cyclopropanoylamino-3-phenylpropenoic acid] | 19% | 52% |  | 13% | 3% | 10% | 67% | 23% | 57% | 6% | 193 to 195 °C | 34% | 20% | 15% | 78% |  |  |
